Data taken from ChEMBL document CHEMBL5260811, “Drug development against tuberculosis: Impact of alkaloids” (Eur J Med Chem, 2017).
≈ marks a conversion by molar mass, not a printed value.

What was measured:
[1] = test system: Mycobacterium sp.; test: Antimycobacterial activity against Mycobacterium sp.; assay type: functional
[2] = test system: Mycobacterium tuberculosis; test: Antimycobacterial activity against Mycobacterium tuberculosis H37Ra; assay type: functional
[3] = test system: Mycobacterium; test: Antimycobacterial activity against Mycobacterium; assay type: functional
[4] = test system: Mycobacterium tuberculosis; test: Antimycobacterial activity against Mycobacterium tuberculosis H37Rv by microplate alamar blue assay; assay type: functional
[5] = test system: Mycolicibacterium smegmatis; test: Antimycobacterial activity against Mycobacterium smegmatis; assay type: functional; details: for MIC: Mycolicibacterium smegmatis
[6] = test system: Mycolicibacterium phlei; test: Antimycobacterial activity against Mycobacterium phlei; assay type: functional
[7] = test system: Mycobacterium tuberculosis; test: Antimycobacterial activity against Mycobacterium tuberculosis H37Rv at 50 ug/ml relative to control; assay type: functional
[8] = test system: Mycobacterium tuberculosis; test: Antimycobacterial activity against Mycobacterium tuberculosis; assay type: functional; details: Mycobacterium tuberculosis
[9] = test system: Mycobacterium tuberculosis; test: Antimycobacterial activity against Mycobacterium tuberculosis H37Ra by green fluorescent protein microplate assay; assay type: functional
[10] = test system: Mycobacterium tuberculosis; test: Antimycobacterial activity against Mycobacterium tuberculosis in presence of banegasine; assay type: functional
[11] = test system: Mycolicibacterium smegmatis; test: Antimycobacterial activity against Mycobacterium smegmatis in presence of banegasine; assay type: functional
[12] = test system: Mycobacterium avium; test: Antimycobacterial activity against Mycobacterium avium; assay type: functional
[13] = test system: Mycobacterium avium; test: Antimycobacterial activity against Mycobacterium avium in presence of banegasine; assay type: functional
[14] = test system: Mycolicibacterium vaccae; test: Antimycobacterial activity against Mycobacterium vaccae; assay type: functional
[15] = test system: Mycolicibacterium fortuitum; test: Antimycobacterial activity against Mycobacterium fortuitum; assay type: functional
[16] = test system: Mycobacterium tuberculosis; test: Antimycobacterial activity against MDR/XDR Mycobacterium tuberculosis; assay type: functional
[17] = test system: Mycobacterium intracellulare; test: Antimycobacterial activity against Mycobacterium intracellulare; assay type: functional, organism-based
[18] = test system: Mycobacterium tuberculosis; test: Antimycobacterial activity against Mycobacterium tuberculosis rv0678; assay type: functional
[19] = test system: Mycobacterium tuberculosis; test: Antimycobacterial activity against Mycobacterium tuberculosis in presence of ethambutol; assay type: functional
[20] = test system: Mycobacterium tuberculosis; test: Antimycobacterial activity against Mycobacterium tuberculosis in presence of isoniazid; assay type: functional
[21] = test system: Mycobacterium tuberculosis; test: Antimycobacterial activity against Mycobacterium tuberculosis H37Rv; assay type: functional
[22] = test system: Mycobacterium kansasii; test: Antimycobacterial activity against Mycobacterium kansasii; assay type: functional
[23] = test system: Mycobacterium tuberculosis; test: Antimycobacterial activity against Mycobacterium tuberculosis Rv3547; assay type: functional

With `c1ccc2c(c1)CC1NCCc3cc4c(c-2c31)OCO4` (centres undefined) the MIC [1] was 12 µg/mL (≈ 45.2 µM).

For `O=C([C@H]1[C@H](/C=C/c2ccc3c(c2)OCO3)[C@H](c2ccc3c(c2)OCO3)C=C[C@H]1C(=O)N1CCCCC1)N1CCCCC1`, the MIC [2] was 12.5 µg/mL (≈ 21.9 µM).

`CS1(C2=CC(=O)C3=C(C2)c2nccc4cccc(c24)N3)CCC(=O)OC1` (centres undefined) showed an MIC [3] of 2.1 µM.

Work on `Cc1ccnc2c1C(=O)c1ccccc1C2=O` [CLEISTOPHOLINE] yielded an MIC [1] of 12.5 µg/mL (≈ 56 µM).

Work on `CC[C@H]1CN(C)[C@H]2Cc3c([nH]c4ccccc34)C(=O)C[C@@H]1[C@@H]2C(=O)OC` yielded an MIC [1] of 128 µg/mL (≈ 361 µM).

`COC(=O)c1cc2c(s1)-c1nccc3c1c(nc1ccccc13)C2=O` showed an MIC [3] of 0.58 µM.

`C=C[C@H]1C=C[C@H]2[C@@H]3C[C@H](C)CC[C@H]3[C@@H]3Oc4ccc(cc4)C[C@]4(O)NC(=O)[C@H](C(=O)[C@@H]1[C@H]23)C4N1C(=O)[C@H]2C(=O)[C@H]3[C@@H](C=C)C=C[C@H]4[C@@H]5C[C@H](C)CC[C@H]5[C@H](Oc5ccc(cc5)C[C@@H]2C1=O)[C@@H]43` (some centres undefined) [HIRSUTELLONE F] was tested, and the MIC [4] was 3.12 µg/mL (≈ 3.5 µM).

Molecule `COC1=C(Br)[C@@H](O)[C@]2(C=C1Br)CC(C(=O)NC[C@@H](O)COc1c(Br)cc(C(O)CNC(=O)C3=NO[C@@]4(C=C(Br)C(OC)=C(Br)[C@H]4O)C3)cc1Br)=CO2` (some centres undefined) has an MIC [3] of 7.9 µg/mL.

`COc1cc2c(cc1O)CC[n+]1cc3c(OC)c(OC)ccc3cc1-2` [JATRORRHIZINE] showed an MIC [1] of under 100 µg/mL.

With `O=C1C=CC2=NC=CC3c4cccc(O)c4N1C23` (centres undefined) the MIC [5] was 8 µg/mL (≈ 33.6 µM) and the MIC [6] was 8 µg/mL (≈ 33.6 µM).

In the case of `C=C(c1cc2ccccc2[nH]1)[C@H]1CCN(C)C/C1=C\CO`, the inhibition at 50 µg/mL [7] is reported as 50%.

Molecule `COC1=C(Br)[C@@H](O)[C@]2(C=C1Br)CC(C(=O)NCCCOc1c(Br)cc(C(O)CNC(=O)C3=NO[C@@]4(C=C(Br)C(OC)=C(Br)[C@H]4O)C3)cc1Br)=CO2` (some centres undefined) has an MIC [3] of 8 µg/mL.

Molecule `COc1ccc2c(c1)[nH]c1cc(O)c(C=O)cc12` has an MIC [8] of 100 µg/mL (≈ 415 µM) and an MIC [2] of 25 µg/mL (≈ 104 µM).

Work on `O=Cc1cc2c3ccc(O)cc3[nH]c2c2ccoc12` yielded an MIC [9] of 25 µg/mL (≈ 99.5 µM).

Work on `C1=C\CCCCN2C[C@H]3CCCC/C=C\CCCCN4CC[C@@H]([C@H](CCCCCC/1)C4)[C@H](C3)C2` yielded an IC [5] of 2.5 µg/mL.

Molecule `O=[N+]([O-])c1c(Cl)cccc1-c1c[nH]cc1Cl` [PYRROLNITRIN] has an MIC [8] of 4 µg/mL (≈ 15.6 µM), an MIC [5] of 4 µg/mL (≈ 15.6 µM) and an IC [10] of 0.075 µg/mL. The IC [11] was 0.075 µg/mL, the MIC [12] was 4 µg/mL (≈ 15.6 µM) and the IC [13] was 0.075 µg/mL.

For `CCCCCCc1cc(Cl)c(O)c(C(=O)c2c[nH]c(Cl)c2Cl)c1O`, the MIC [5] was 0.05 µg/mL (≈ 0.128 µM), the MIC [14] was 0.05 µg/mL (≈ 0.128 µM) and the MIC [15] was 0.05 µg/mL (≈ 0.128 µM).

With `COc1cnc2c3c(nccc13)C(=O)c1ccccc1-2` the MIC [1] was 1.56 µg/mL (≈ 5.95 µM).

Molecule `COC(=O)c1cc2c(o1)-c1nccc3c1c(nc1ccccc13)C2=O` has an MIC [3] of 0.61 µM.

Work on `Oc1ccc2c(c1)CC1NCCc3cc4c(c-2c31)OCO4` (centres undefined) yielded an MIC [1] of 6 µg/mL (≈ 21.3 µM).

`O=Cc1ccc2[nH]c3ccccc3c2c1` showed an MIC [4] of 42.3 µg/mL (≈ 217 µM) and an MIC [8] of 100 µg/mL (≈ 512 µM).

Molecule `CC[C@H]1C[C@H]2C[C@H]3c4[nH]c5ccc(OC)cc5c4CCN(C2)C13` has an MIC [1] of 50 µg/mL (≈ 161 µM).

`COc1ccc2c3c(c4cc(OC)c(OC)cc4c2c1)CN1CCCC1C3` (stereo not drawn) [(+/-)-DEOXYTYLOPHORININE] gave an MIC [16] of 6.25 µg/mL (≈ 17.2 µM).

In the case of `CC(C)=CCc1c(O)c(C=O)cc2c1[nH]c1cc(O)ccc12` [7-HYDROXYHEPTAPHYLLINE], the MIC [9] is reported as 25 µg/mL (≈ 84.6 µM).

For `CC[C@H]1C[C@H]2C[N@]3CCc4c([nH]c5ccc(OC)cc45)[C@](C(=O)OC)(C2)[C@H]13`, the MIC [1] was 50 µg/mL (≈ 136 µM).

`CC/C=C(\C)C[C@H](C)C[C@H](C)/C(O)=C1/C(=O)N[C@@H]([C@@H](O)c2ccc(O)cc2)C1=O` was tested, and the MIC [14] was 6.25 µg/mL (≈ 15.6 µM).

`COC(=O)[C@@]12COCC=C3CN(CC[C@@H]31)Cc1c2[nH]c2ccccc12` showed an inhibition at 50 µg/mL [7] of 50%.

For `COC(=O)[C@@]1(c2cc3ccccc3[nH]2)COCC=C2CN(C)CC[C@@H]21` [6,7-SECO-ANGUSTILOBINE B], the inhibition at 50 µg/mL [7] was 50%.

Work on `Nc1ccccc1-c1c[nH]c(C(=O)O)c1` yielded an MIC [5] of 0.5 µg/mL (≈ 2.47 µM).

Molecule `CC(C)=CCOc1ccc(C2=C(Cc3ccccc3)C(=O)N(O)C2=O)cc1` has an MIC [6] of 25 µg/mL (≈ 68.8 µM).

`CC[C@H]1C=CCC[C@@]2(C[C@@H]3CC[C@@H]4[C@H](C(=O)OCCCCCCCCCCCCCCCC(=O)N(CCCN)CC(O)CCN)[C@]5(CCC[C@@H](C)O5)N=C(N2)N34)O1` (some centres undefined) was tested, and the MIC [4] was 46.5 µg/mL (≈ 58 µM).

In the case of `C1=C\CCCC[C@@H]2CN3CCCC/C=C\CCCC[C@H]4C[C@H](CN(CCCCCC/1)C4)[C@H]2CC3`, the IC [5] is reported as 1 µg/mL.

`O=C1c2ccccc2-c2nccc3ccnc1c23` [SAMPANGINE] showed an MIC [1] of 0.78 µg/mL (≈ 3.36 µM).

`COc1ccc2cc3[n+](cc2c1OC)CCc1cc2c(cc1-3)OCO2.[Cl-]` [BERBERINE CHLORIDE] gave an MIC [8] of 25 µg/mL, an MIC [5] of 0.78 µg/mL and an MIC [17] of 0.78 µg/mL.

For `O=CNCCCCC(NC(=O)C1COC(c2ccccc2O)=N1)C(=O)O` (centres undefined) [TRANSVALENCIN Z], the MIC [5] was 0.125 µg/mL (≈ 0.344 µM).

`COc1ccc2[nH]c3ccc(C=O)cc3c2c1` showed an MIC [4] of 15.6 µg/mL (≈ 69.3 µM).

In the case of `COc1ccc2c(c1)CC1NCCc3cc4c(c-2c31)OCO4` (centres undefined), the MIC [1] is reported as 12 µg/mL (≈ 40.6 µM).

`CCCCCCCCC[C@@H]1C[C@@H]2CC[C@H]3[C@@H](C(=O)O[C@H](C)CCCCCCC[C@@H]4C[C@@H]5CC[C@@H]6C[C@H](C)NC(=N4)N65)[C@@H](C)N=C(N1)N23` gave an MIC [4] of 3.18 µg/mL (≈ 4.87 µM).

`CC(C)/N=c1\cc2n(-c3ccc(Cl)cc3)c3ccccc3nc-2cc1Nc1ccc(Cl)cc1` [CLOFAZIMINE] was tested, and the MIC [18] was 0.12 µg/mL (≈ 0.253 µM).

Molecule `C/C=C1\CN2CC[C@@H]1[C@](CO)(C(=O)OC)c1[nH]c3ccccc3c1C2` has an inhibition at 50 µg/mL [7] of 50%.

`COc1ccc2cc1Oc1ccc(cc1)C[C@H]1c3cc(c(OC)cc3CCN1C)Oc1c(OC)c(OC)cc3c1[C@H](C2)N(C)CC3` [FANCHININ] gave an MIC [19] of 0.25 µg/mL and an MIC [20] of 0.25 µg/mL.

`CC[C@@H]1[C@@H]2CCN3CC[C@@]4(C(=C2C(=O)OC)Nc2ccccc24)[C@@H]13` showed an inhibition at 50 µg/mL [7] of 50%.

Work on `Oc1cccc2c1[nH]c1c(C3=C[C@@]4(O)CC/C=C\CCCCN5CCC3[C@]3(C[C@@H]6/C=C\CCCCN6[C@H]34)C5)nccc12` (some centres undefined) yielded an IC50 [17] of 3.5 µg/mL (≈ 6.2 µM) and an MIC [21] of 0.4 µg/mL (≈ 0.708 µM).

`O=C1CCCN2[C@@H](CC1)C[C@]13CN4CCCC/C=C\CC[C@](O)(C=C(c5nccc6c5[nH]c5c(O)cccc56)[C@@H]1CC4)[C@H]23` showed an IC50 [17] of 3.5 µg/mL (≈ 6.03 µM) and an MIC [21] of 0.4 µg/mL (≈ 0.689 µM).

`COc1ccc2[nH]c3cc(O)c(C=O)cc3c2c1` showed an MIC [4] of 14.3 µg/mL (≈ 59.3 µM).

`CC(C)=CCc1c(O)ccc2[nH]c3ccc(C=O)cc3c12` [MICROMELINE] gave an MIC [4] of 31.5 µg/mL (≈ 113 µM).

Work on `O=C1C=CC2=NC=CC3c4ccccc4N1C23` (centres undefined) yielded an MIC [5] of 8 µg/mL (≈ 36 µM) and an MIC [6] of 8 µg/mL (≈ 36 µM).

`COC(=O)[C@@]12COCC=C3C[N+]([O-])(CC[C@@H]31)Cc1c2[nH]c2ccccc12` was tested, and the inhibition at 50 µg/mL [7] was 50%.

Molecule `c1cncc(-c2ncc(-c3ccc4c(c3)OCO4)o2)c1` has an MIC [8] of 25 µg/mL (≈ 93.9 µM), an MIC [22] of 25 µg/mL (≈ 93.9 µM) and an MIC [12] of 25 µg/mL (≈ 93.9 µM).

In the case of `CC/C=C(\C)C[C@H](C)C[C@H](C)/C(O)=C1/C(=O)N[C@@H](Cc2ccc(O)cc2)C1=O`, the MIC [14] is reported as 6.25 µg/mL (≈ 16.2 µM).

`C[C@@]1(COc2ccc(N3CCC(Oc4ccc(OC(F)(F)F)cc4)CC3)cc2)Cn2cc([N+](=O)[O-])nc2O1` gave an MIC [23] of 0.006 µg/mL (≈ 0.0112 µM).

`N[C@@H]1CONC1=O` [CYCLOSERINE] gave an MIC [8] of 3.12 µg/mL (≈ 30.6 µM), an MIC [5] of 3.12 µg/mL (≈ 30.6 µM) and an MIC [21] of 12.5 µg/mL (≈ 122 µM). For the same molecule, the MIC [15] was 3.12 µg/mL (≈ 30.6 µM) and the MIC [12] was 3.12 µg/mL (≈ 30.6 µM).
